Counter-ions that a name gives are not always drawn. Like-named read-outs stand apart in the source and are kept apart here. Peptide text beside a SMILES is read from it. * marks the point of attachment. Cbz = O=C(OCc1ccccc1)*
Molecular target: SARS-CoV-2 3CLpro (Severe acute respiratory syndrome coronavirus 2, UniProt P0DTD1)
Experiment: biochemical
Assay type: biochemical
Design: Replicate_1 / Replicate_2 / mean / mean (LOPAC_screen_w_protease): unit not given here
Conditions: for inhibition at 5 µM: 4 h
[1] = sheet LOPAC_screen_w_protease, primary screen of LOPAC1280 at 5 µM with protease, mean of the two replicates, read-out: mean
[2] = sheet LOPAC_screen_w_protease, primary screen of LOPAC1280 at 5 µM with protease, replicate 1, read-out: Replicate_1
[3] = sheet LOPAC_screen_w_protease, primary screen of LOPAC1280 at 5 µM with protease, replicate 2, read-out: Replicate_2
[4] = LOPAC1280 primary screen with protease, 5 µM compound, replicate 1
[5] = LOPAC1280 primary screen with protease, 5 µM compound, replicate 2
[6] = sheet LOPAC_screen_w_protease, LOPAC1280 primary screen with protease, 5 µM compound, mean of the two replicates
[7] = sheet LOPAC_screen_w_protease, LOPAC1280 primary screen with protease, 5 µM compound, replicate 1
[8] = sheet LOPAC_screen_w_protease, LOPAC1280 primary screen with protease, 5 µM compound, replicate 2

SMILES: CCCCCN(CCCCC)C(=O)C(CCC(=O)O)NC(=O)c1ccc(Cl)c(Cl)c1 (centres unmarked) [Lorglumide sodium]
- inhibition at 5 µM [1]: 3.65%
- inhibition at 5 µM [2]: 2.9%
- inhibition at 5 µM [3]: 4.4%

SMILES: CN1CCN(C2=Nc3ccccc3Oc3ccc(Cl)cc32)CC1 [Loxapine succinate]
- inhibition at 5 µM (sheet LOPAC_screen_w_protease, primary screen with protease, 5 µM, mean of two replicates, read-out: mean): -0.686%
- inhibition at 5 µM (sheet LOPAC_screen_w_protease, primary screen with protease, 5 µM, replicate 1, read-out: Replicate_1): -0.577%
- inhibition at 5 µM (sheet LOPAC_screen_w_protease, primary screen with protease, 5 µM, replicate 2, read-out: Replicate_2): -0.795%

SMILES: O=C(O)/C(=C/c1c(C(=O)O)[nH]c2cc(Cl)cc(Cl)c12)c1ccccc1 [MDL 105,519]
- Replicate_1: 2.708
- Replicate_2: 5.657
- mean: 4.183

SMILES: CC(C)[C@H](NC(=O)OCc1ccccc1)C(=O)N[C@H](C=O)Cc1ccccc1 [MDL 28170] (Cbz-Val-Phe-aldehyde)
- inhibition at 5 µM (read-out: Replicate_1 (LOPAC_screen_w_protease)): 0.281%
- inhibition at 5 µM (read-out: Replicate_2 (LOPAC_screen_w_protease)): 3.52%

SMILES: CC[N+](CC)(CC)CCOc1ccc(/C=C/c2ccccc2)cc1 [MG 624]
- inhibition at 5 µM (sheet LOPAC_screen_w_protease, primary screen at 5 µM, mean of two replicates, read-out: mean (LOPAC screen with protease)): 11.8%
- inhibition at 5 µM (sheet LOPAC_screen_w_protease, primary screen at 5 µM, replicate 1, read-out: Replicate_1 (LOPAC screen with protease)): 10.3%
- inhibition at 5 µM (sheet LOPAC_screen_w_protease, primary screen at 5 µM, replicate 2, read-out: Replicate_2 (LOPAC screen with protease)): 13.3%

SMILES: C1CNCCN1.COc1cc(C(O)CO)ccc1O.COc1cc(C(O)CO)ccc1O (centres unmarked) [MHPG piperazine]
- Replicate_1: 4.5396
- Replicate_2: 3.9909
- mean: 4.265

SMILES: COc1cc(C(O)CO)ccc1OS(=O)(=O)[O-].[K+] (centres unmarked) [MHPG sulfate potassium]
- mean (sheet LOPAC_screen_w_protease, LOPAC1280 primary screen at 5 µM, with protease, mean of the two replicates): 0.6725
- Replicate_1 (sheet LOPAC_screen_w_protease, LOPAC1280 primary screen at 5 µM, with protease, replicate 1): 2.348
- Replicate_2 (sheet LOPAC_screen_w_protease, LOPAC1280 primary screen at 5 µM, with protease, replicate 2): -1.003

SMILES: CCCCCCCCCCCCCCCCOCC(COCC(F)(F)F)OP(=O)(O)OC (centres unmarked) [MJ33]
- Replicate_1: 1.4444
- Replicate_2: -0.2702
- mean: 0.5871

SMILES: CC(C)c1ccc2c(c1)c(SC(C)(C)C)c(CC(C)(C)C(=O)O)n2Cc1ccc(Cl)cc1 [MK-886]
- mean (sheet LOPAC_screen_w_protease, primary screen of LOPAC1280 at 5 µM with protease, mean of the two replicates): 3.5784
- Replicate_1 (sheet LOPAC_screen_w_protease, primary screen of LOPAC1280 at 5 µM with protease, replicate 1): 4.4392
- Replicate_2 (sheet LOPAC_screen_w_protease, primary screen of LOPAC1280 at 5 µM with protease, replicate 2): 2.7176

SMILES: CN1CC[C@]2(CCN3CCc4c(oc5ccccc45)[C@@H]3C2)N(C)C1=O [MK-912]
- mean (LOPAC_screen_w_protease) (LOPAC1280 primary screen with protease, 5 µM compound, mean of two replicates): 1.637
- Replicate_1 (LOPAC_screen_w_protease) [4]: 1.746
- Replicate_2 (LOPAC_screen_w_protease) [5]: 1.529

SMILES: Cl.O=S(=O)(c1cccc2c(I)cccc12)N1CCCNCC1 [ML-7]
- Replicate_1: 2.299
- Replicate_2: 4.928
- mean: 3.614

SMILES: Cl.O=S(=O)(c1cccc2c(Cl)cccc12)N1CCCNCC1 [ML-9]
- Replicate_1: 1.4227
- Replicate_2: 4.79
- mean: 3.1064

SMILES: CCCOC(=O)c1c(-c2ccccc2)nc(CC)c(C(=O)SCC)c1CCC [MRS 1523]
- mean (sheet LOPAC_screen_w_protease, primary screen with protease, compound at 5 µM, mean of two replicates): 2.972
- Replicate_1 (sheet LOPAC_screen_w_protease, primary screen with protease, compound at 5 µM, replicate 1): 3.943
- Replicate_2 (sheet LOPAC_screen_w_protease, primary screen with protease, compound at 5 µM, replicate 2): 2.002

SMILES: CCCn1c(=O)c2[nH]c(-c3ccc(OCC(=O)Nc4ccc(C#N)cc4)cc3)nc2n(CCC)c1=O [MRS 1754]
- inhibition at 5 µM [1]: 3.78%
- inhibition at 5 µM [2]: 1.48%
- inhibition at 5 µM [3]: 6.08%

SMILES: C#CCN1C(C)=C(C(=O)OC)C(c2cccc([N+](=O)[O-])c2)C(C(=O)OCC)=C1C (centres unmarked) [MRS 1845]
- mean [6]: 4.379
- Replicate_1 [7]: 3.994
- Replicate_2 [8]: 4.765

SMILES: Cc1nc(N=Nc2ccc(C(=O)O)cc2)c(COP(=O)(O)O)c(C=O)c1O [MRS 2159]
- mean (LOPAC_screen_w_protease) (LOPAC1280 primary screen with protease, 5 µM compound, mean of the two replicates): 1.803
- Replicate_1 (LOPAC_screen_w_protease) [4]: 1.948
- Replicate_2 (LOPAC_screen_w_protease) [5]: 1.658

SMILES: CNc1ncnc2c1ncn2[C@H]1C[C@H](OP(=O)(O)O)[C@@H](COP(=O)(O)O)O1 [MRS 2179]
- mean [6]: 4.143
- Replicate_1 [7]: 4.368
- Replicate_2 [8]: 3.917

SMILES: CNCCCC12CCC(c3ccccc31)c1ccccc12 [Maprotiline hydrochloride]
- inhibition at 5 µM (read-out: Replicate_1): 4%
- inhibition at 5 µM (read-out: Replicate_2): 5.55%
- inhibition at 5 µM (read-out: mean): 4.77%

— article PMC7587356, “High-Throughput Screening for Inhibitors of the SARS-CoV-2 Protease Using a FRET-Biosensor” (Molecules, 2020)
